Legend:
MtlA = experiment: Global proteome analysis of sublethally treated cells; type: cell-based, Staphylococcus aureus; conditions: Mu50 cells, sublethal concentration allowing ca. 50% residual growth
Protocol: After in-solution digestion (ISD) peptides were desalted on home-made C18 StageTips (Rappsilber et al. [2007]). Briefly, the peptide solution was passed over the MeOH pre-conditioned and 0.5% formic acid (FA) equilibrated StageTip. Immobilised peptides were then washed twice with 0.5% (v/v) FA. Washed peptides were eluted from the StageTips with 80% (v/v) ACN and 0.5% (v/v) FA and dried using a vacuum concentrator (Eppendorf). Before LC-MS, peptide samples were resuspended in 10 μL 0.1% (v/v) FA.
LC-MS/MS experiments were performed on an Orbitrap Elite instrument (Michalski et al. [2012]) (Thermo) that was coupled to an EASY-nLC 1000 liquid chromatography (LC) system (Thermo). […] Product ion spectra were recorded in a data-dependent fashion in the ion trap (ITMS) in a variable scan range and at a rapid scan rate. […] Peptides were analysed using a repeating cycle consisting of a full precursor ion scan (1.0 × 10^6 ions or 50 ms) followed by 15 product ion scans (1.0 × 10^4 ions or 100 ms), where peptides are isolated based on their intensity in the full survey scan (threshold of 500 counts) for tandem mass spectrum (MS2) generation that permits peptide sequencing and identification. […]
RAW spectra were submitted to an Andromeda (Cox et al. [2011]) search in MaxQuant (version 1.5.3.30) using the default settings (Cox and Mann [2008]). Label-free quantification was activated (Cox et al. [2014]). […]

[1] = test system: MRSA strain containing pLA03::mtlA; experiment: MIC in recombinant strain, mtlA overexpression; type: cell-based, Staphylococcus aureus; conditions: for MIC: Staphylococcus aureus, MRSA
Protocol: To corroborate the role as potential determinants of resistance, mtlA and tetR were overexpressed under control of an anhydrotetracycline (Atc)-inducible promoter, and the effect on sensitivity toward 3-bromo-PP was analysed (Fig. 4e). […] However, induction of mtlA or tetR expression in the presence of Atc strongly rendered the cells more susceptible to 3-bromo-PP resulting in MICs of 0.019 μM for mtlA and 0.078 μM for tetR overexpression, respectively. This translates into a […] and 8-fold increased sensitivity during mtlA or tetR overexpression, respectively, compared with the empty vector control (Fig. 4e).

Oc1c(Br)cc(Br)c(Br)c1Oc1ccc(Br)cc1Br [3-bromo-PP, 3,4,6-tribromo-2-(2′,4′-dibromophenoxy)phenol]
downregulation of MtlA protein (MtlA): approx. 2.5 fold | MIC ([1]; induced with Atc (1 μg/mL anhydrotetracycline)): 0.019 µM | MIC ([1]; non-induced): 0.312 µM | increased sensitivity compared with the empty vector control ([1]; mtlA overexpression): 33 fold
